Where two headings read alike, the source gives them in different places.
Key:
[1] = biological target: T1, kappa-type opioid receptor (Cavia porcellus, UniProt P41144); test: inhibition of specific [^3 H] EKC binding to guinea pig cerebellum membrane
T1 construct: using guiniea pig cerebellum membrane; from tissue; host or cells: guinea pig cerebellum membranes
Protocol: (§1) The interaction of some of the novel compounds with mu, delta and kappa - type opioid receptors present in brain membranes was examined in vitro. […] DAGO (mu-type receptor), or [^3 H] DADLE (Delta-type receptor) using rat forebrain membranes and [^3 H] EKC (kappa-type receptor) using guiniea pig cerebellum membrane was determined. Computer assisted analysis (EBDA) was used to determine apparent Ki values for the various compounds.
(§2) The values represent the MEAN±S.E.M. of the Ki(nM) for each compound to inhibit specific binding of the indicated ligand. Each value represents the mean of three individual experiments performed on separate occasions.

[2] = biological target: delta-type opioid receptor (Rattus norvegicus, UniProt P33533); test: inhibition of specific [^3 H] DADLE binding to rat forebrain membranes; settings: read-out: (Ki) nM, δ receptor (Rat Forebrain); Table 6; [^3 H] DADLE, mean of three experiments
Sequence of delta-type opioid receptor (P33533 whole entry): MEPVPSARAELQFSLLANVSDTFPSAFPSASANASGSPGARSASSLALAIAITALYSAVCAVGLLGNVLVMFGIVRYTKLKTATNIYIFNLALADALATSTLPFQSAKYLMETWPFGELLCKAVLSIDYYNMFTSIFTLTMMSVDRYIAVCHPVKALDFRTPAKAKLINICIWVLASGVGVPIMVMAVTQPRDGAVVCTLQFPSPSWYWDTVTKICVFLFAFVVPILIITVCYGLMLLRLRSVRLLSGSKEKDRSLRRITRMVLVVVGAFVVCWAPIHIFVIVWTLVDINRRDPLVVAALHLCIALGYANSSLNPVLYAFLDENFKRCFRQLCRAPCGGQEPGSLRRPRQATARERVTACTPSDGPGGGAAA
Protocol: (§3) The interaction of some of the novel compounds with mu and delta-type opioid receptors present in brain membranes was examined in vitro. […] DAGO (mu-type receptor) or [^3 H] DADLE (delta-type receptor) was determined using rat forebrain membranes. Computer assisted analysis (EBDA) was used to determine apparent Ki values for the various compounds.
(§4) Values represent the MEAN±S.E.M. of the Ki(nM) for each compound to inhibit specific binding of the indicated ligand to rat brain membranes. The values are from two-five separate experiments and were calculated according to the method of Cheng and Prusoff [Biochem. Pharmacol. 1973, 22, 3099-3108] together with the EBDA Program. Numbers in parentheses are the mean Hill coefficients for each compound to inhibit ligand binding.
as §4, with “two.div.seven” for “two-five”, “Prusoff” for “Prusoff [Biochem. Pharmacol. 1973, 22, 3099-3108]”, “program.” for “Program.”, “binding. N.D.=not determined” for “binding.”
as §1, §2

[3] = biological target: T2, mu-type opioid receptor (Rattus norvegicus, UniProt P33535); test: inhibition of specific [^3 H] DAGO binding to rat forebrain membranes; settings: Table 6, [^3 H] DAGO, mean of three experiments
T2 construct: using rat forebrain membranes; from tissue; host or cells: rat forebrain membranes
T2 sequence (P33535 whole entry): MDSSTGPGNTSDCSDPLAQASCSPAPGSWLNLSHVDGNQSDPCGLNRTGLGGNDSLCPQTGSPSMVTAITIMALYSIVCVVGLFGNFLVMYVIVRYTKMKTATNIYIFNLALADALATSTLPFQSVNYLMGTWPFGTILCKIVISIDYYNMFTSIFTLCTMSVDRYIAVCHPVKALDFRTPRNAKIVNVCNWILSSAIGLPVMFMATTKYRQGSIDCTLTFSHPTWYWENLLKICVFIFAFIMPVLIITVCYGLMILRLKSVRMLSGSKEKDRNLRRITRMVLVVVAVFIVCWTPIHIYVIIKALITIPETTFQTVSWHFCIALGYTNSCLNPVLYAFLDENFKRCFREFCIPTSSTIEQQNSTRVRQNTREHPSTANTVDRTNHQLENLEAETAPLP
Protocol: as §3, §4
as §4, with “two.div.seven” for “two-five”, “Prusoff” for “Prusoff [Biochem. Pharmacol. 1973, 22, 3099-3108]”, “program.” for “Program.”, “binding. N.D.=not determined” for “binding.”
as §1, §2

[4] = tested on: tail flick response; test: radiant heat tail flick analgesia in rats; type: in vivo, rat
Protocol: The analgesic properties of the compounds prepared in accordance with Examples III and IV were evaluated in rats using the radiant heat and tail flick paradigm. […] Flick latencies in FIGS. 11-13 were determined at 30 minute intervals through 3.5 h and the data was expressed as a percentage of the maximum possible effect (% MPE). A 15 sec. cut-off latency was used to minimize tissue damage. The values shown are the mean values for 6 rats.
A 15 sec. cut-off latency was used to prevent tissue damage.
The analgesic properties of compounds XXII and XXIII were evaluated in rats using the writhing assay and tail flick paradigm. […] The writhing assay which uses a chemical stimulus to produce pain, is believed to be more sensitive to kappa agonist activity than other measures of analgesia which uses a heat stimulus (Dykstra, L.A. Behavioral Pharmacology: The Current Status, N.Y.: Allan R. Liss. Inc. 1985).

[5] = (Ki) nM, μ receptor (Rat Forebrain)

T1 sequence (P41144 whole entry): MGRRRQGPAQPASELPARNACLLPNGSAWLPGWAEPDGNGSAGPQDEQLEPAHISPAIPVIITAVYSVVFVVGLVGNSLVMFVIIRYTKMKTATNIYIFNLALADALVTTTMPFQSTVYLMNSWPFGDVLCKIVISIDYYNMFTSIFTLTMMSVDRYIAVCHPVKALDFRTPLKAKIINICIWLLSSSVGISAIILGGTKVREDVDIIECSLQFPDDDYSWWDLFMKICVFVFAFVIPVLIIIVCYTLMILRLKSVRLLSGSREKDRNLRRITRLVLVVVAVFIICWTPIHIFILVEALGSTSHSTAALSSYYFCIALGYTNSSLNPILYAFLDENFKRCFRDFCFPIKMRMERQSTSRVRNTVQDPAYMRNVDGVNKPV

SMILES	Ki [2]	Ki [1]	Ki [3, 5]	also measured
N=C(N)c1ccc(ON=C2CC[C@@]3(O)[C@H]4Cc5ccc(O)c6c5[C@@]3(CCN4CC3CC3)[C@H]2O6)cc1 [Example XX, 6-[4-iminoaminomethylphenyl]oximino-17-cyclopropylmethyl-4,5 α-epoxy-3,14-dihydroxymorphinan]	1.67 nM			Ki ([1]; read-out: (Ki) nM, κ receptor (GP Cerebellum), Table 6, [^3 H] EKC, mean of three experiments): 0.64 nM; Ki ([3]; read-out: (Ki) nM, μ receptor (Rat Forebrain)): 0.73 nM
O=C1c2ccccc2C(=O)N1Cc1ccc(ON=C2CC[C@@]3(O)[C@H]4Cc5ccc(O)c6c5[C@@]3(CCN4CC3CC3)[C@H]2O6)cc1 [Example XXI, 6-[4-phthalimidomethylphenyl]oximino-17-cyclopropylmethyl-4,5 α-epoxy-3,14-dihydroxymorphinan]	2.57 nM	18 nM	7.35 nM	
NCc1ccc(ON=C2CC[C@@]3(O)[C@H]4Cc5ccc(O)c6c5[C@@]3(CCN4CC3CC3)[C@H]2O6)cc1 [Example XXIV, 6-[4-aminomethylphenyl]oximino-17-cyclopropylmethyl-4,5α-epoxy-3,14-dihydroxymorphinan]	1 nM	0.71 nM	0.34 nM	
Oc1ccc2c3c1O[C@H]1C(=NOC4CCCCC4)CC[C@@]4(O)[C@@H](C2)N(CC2CC2)CC[C@]314 [Example XXV, 6-cyclohexyloximino-17-cyclopropylmethyl-4,5 α-epoxy-3,14-dihydroxymorphinan]	0.08 nM	9.76 nM	1.1 nM	
Oc1ccc2c3c1O[C@H]1C(=NOC4CCCC4)CC[C@@]4(O)[C@@H](C2)N(CC2CC2)CC[C@]314 [Example XXVI, 6-cyclopentyloximino-17-cyclopropylmethyl-4,5 α-epoxy-3,14-dihydroxymorphinan]	0.04 nM	7.94 nM	0.52 nM	
Oc1ccc2c3c1O[C@H]1C(=NOC45CC6CC(CC(C6)C4)C5)CC[C@@]4(O)[C@@H](C2)N(CC2CC2)CC[C@]314 [Example XXVII, 6-[1-adamantyl]oximino-17-cyclopropylmethyl-4,5 α-epoxy-3,14-dihydroxymorphinan]	2.63 nM	6.41 nM	5.39 nM	
CN1CC[C@]23c4c5ccc(O)c4O[C@H]2[C@@H](O)C=C[C@H]3[C@H]1C5 [Morphine, morphine, reference compound]				ED50, tail flick analgesia ([4]; S.C., 30 min): 4.91 µmol/kg; dose producing approximately equal analgesia ([4]; S.C., tail flick, through 3.5 hr): ~10.5 µmol/kg; ED50, Antagonism of the Tail-Flick Response in the Rat ([4]; Table 7): 2.60 mg/kg; antagonism of tail-flick response to heat ([4]; rat): effectively antagonized the tail-flick response to a heat stimulus in the rat
Oc1ccc2c3c1O[C@H]1C(=NOc4ccccc4C(F)(F)F)CC[C@@]4(O)[C@@H](C2)N(CC2CC2)CC[C@]314 [XIX, 6-[2-trifluoromethylphenyl]oximino-17-cyclopropylmethyl-4,5 α-epoxy-3,14-dihydroxymorphinan]	1.29 nM		3.77 nM	
N#Cc1ccc(ON=C2CC[C@@]3(O)[C@H]4Cc5ccc(O)c6c5[C@@]3(CCN4CC3CC3)[C@H]2O6)cc1 [XVIII, 6-[4-cyanophenyl]oximino-17-cyclopropylmethyl-4,5α-epoxy-3,14-dihydroxymorphinan]	1.64 nM	12.9 nM	2.07 nM	

— patent US4889860A (Nova Pharmaceutical Corporation, priority 1987, dated 1989)
